The text below walks through data of ChEMBL document CHEMBL1121855, “Potential salicylamide antiplaque agents: in vitro antibacterial activity against Actinomyces viscosus” (J Med Chem, 1981).

Data set [1] relates to Actinomyces israelii. Put plainly: In vitro antibacterial activity against Actinomycetes israelii 12836. It counts as functional.
Data set [2] in a line: Observed inhibitory activity against various Actinomycetes strains. The settings on record: actinomycetaceae.
Data set [3] concerns Actinomyces viscosus. Put plainly: In vitro antibacterial activity against Actinomycetes viscosus T14V. It counts as functional.
A short description of data set [4]: Distribution coefficient between octanol and aqueous phase at pH7.2. The settings on record: pH 7.2. It counts as physicochemical.
Data set [5] deals with Actinomyces israelii. The experiment in a line: In vitro antibacterial activity against Actinomycetes israelii 10048. It counts as functional.
The test system of data set [6] is Actinomyces israelii. Put plainly: In vitro antibacterial activity against Actinomycetes israelii 28360. It counts as functional.
Data set [7] deals with Actinomyces naeslundii. The experiment in a line: In vitro antibacterial activity against Actinomycetes naeslundii 8115. In kind it is functional.
Data set [8] can be described thus: Partition coefficient is determined in octanol/buffer solution. In kind it is physicochemical. Conditions: octanol/buffer; read-out: logP.
Data set [9] has as its system Actinomyces naeslundii. The experiment in a line: In vitro antibacterial activity against Actinomycetes naeslundii 12104. In kind it is functional.
In data set [10] the test system is Actinomyces viscosus. The experiment in a line: In vitro antibacterial activity against Actinomyces viscosus M-100-2000. It counts as functional.
Data set [11] can be described thus: Dissociation constant is the negative logarithm of the equilibrium coefficient of the neutral and charged forms of the compound. It counts as physicochemical.

SMILES strings stand for the structures. ≈ marks a conversion by molar mass, not a printed value.

The term MIC denotes the smallest concentration in the dilution series that meets the test's criterion for growth inhibition. A lower MIC goes with inhibition by little substance. For orientation: logD means the decadic logarithm of the distribution of all forms, ionised or not, between an organic phase and buffer at a given pH. A low value points to lower lipophilicity. As usually defined, the logP is the decadic logarithm of the partition coefficient of the neutral form, usually between octanol and water. The pKa is the negative logarithm of the acid dissociation constant. Lower therefore signals a group that gives up its proton readily.

Turning to `O=C(Nc1ccc(Br)cc1)c1cc(Br)cc(Br)c1O` [TRIBROMSALAN], the minimal inhibitory concentration (MIC) turned out to be 0.5 µg/mL (≈ 1.11 µM) in [1]; 1 µg/mL (≈ 2.22 µM) in data set [3]; 1 µg/mL (≈ 2.22 µM) in data set [5]; 5 µg/mL (≈ 11.1 µM) in data set [6]; 1 µg/mL (≈ 2.22 µM) in data set [7]; 1 µg/mL (≈ 2.22 µM) in data set [9]. In [10], 0.5 µg/mL (≈ 1.11 µM) was the least that counted as inhibitory (MIC). The “Log 1/MIC” value in data set [2] is reported as 5.95. The compound further showed a pH-dependent lipophilicity (logD) in data set [4] of 4.78. In addition, the log partition coefficient (logP) in data set [8] came to 6.15. For the same compound, the pKa in [11] came to 5.85.
